Measurements as given in patent US20230151003A1, “COMPOUNDS AND METHODS OF USE” (Exelixis, Inc., priority 2020, published 2023).

Experiments:
Assay type in all cases: cell-based
Mer = molecular target: T1, Mer (Homo sapiens, UniProt Q12866); assay: Mer autophosphorylation ELISA in transient transfected 293A cells; conditions: Table 3 Cellular Activities; MERTK-transfected 293A cells, phospho-Mer ELISA
T1 construct: host or cells: 293A cells (Thermo Fisher #R70507)
T1 sequence (Q12866 21-999): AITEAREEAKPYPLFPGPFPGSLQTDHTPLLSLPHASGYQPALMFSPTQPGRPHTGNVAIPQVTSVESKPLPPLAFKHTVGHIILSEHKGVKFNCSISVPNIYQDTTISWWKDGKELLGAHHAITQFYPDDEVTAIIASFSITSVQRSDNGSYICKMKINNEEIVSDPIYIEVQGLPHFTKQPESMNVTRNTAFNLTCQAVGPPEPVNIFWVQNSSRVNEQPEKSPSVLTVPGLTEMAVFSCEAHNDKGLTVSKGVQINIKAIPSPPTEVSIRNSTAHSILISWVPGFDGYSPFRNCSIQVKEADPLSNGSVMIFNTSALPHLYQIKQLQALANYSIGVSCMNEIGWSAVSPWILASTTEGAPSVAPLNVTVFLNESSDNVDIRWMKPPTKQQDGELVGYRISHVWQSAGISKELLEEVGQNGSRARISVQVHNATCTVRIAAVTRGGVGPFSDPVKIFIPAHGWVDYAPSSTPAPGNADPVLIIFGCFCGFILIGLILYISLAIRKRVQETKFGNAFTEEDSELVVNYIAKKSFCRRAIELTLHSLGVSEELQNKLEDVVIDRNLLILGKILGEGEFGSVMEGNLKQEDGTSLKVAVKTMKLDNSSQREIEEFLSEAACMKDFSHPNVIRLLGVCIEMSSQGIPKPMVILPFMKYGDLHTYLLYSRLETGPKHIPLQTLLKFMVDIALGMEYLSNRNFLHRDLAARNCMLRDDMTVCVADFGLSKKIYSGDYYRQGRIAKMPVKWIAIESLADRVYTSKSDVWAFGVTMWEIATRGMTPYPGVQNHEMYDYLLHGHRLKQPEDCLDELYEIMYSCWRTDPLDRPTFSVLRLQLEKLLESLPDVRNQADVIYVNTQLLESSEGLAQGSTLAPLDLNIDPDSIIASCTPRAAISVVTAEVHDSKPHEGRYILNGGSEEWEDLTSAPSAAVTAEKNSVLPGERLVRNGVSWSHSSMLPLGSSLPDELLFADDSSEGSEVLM
Description: 293A cells (Thermo Fisher #R70507) were seeded at 1.5×10^6 cells/well onto 100 mm dish (Greiner #664169), in DMEM (Thermo Fisher #11995-040) containing 10% FBS (Thermo Fisher #26140-079), 1% MEM NEAA (Thermo Fisher #11140-050), 1% GlutaMax (Thermo Fisher #35050-061), and 1% Penicillin Streptomycin (Thermo Fisher #15140-122). 293A cells were incubated at 37° C., 5% CO2 for 24 h and then transfected with 6μg MERTK DNA (Genecopoeia #EX-Z8208-M02) using TransIT LT1 transfection reagent (Mirus-Bio #MIR2305). After 24 h incubation, the transfected 293A cells were seeded at 1×10^5 cells/well onto 96-well plates (Corning #3904) in DMEM growth medium overnight. Test compounds were serially diluted to produce an 8-point dose curve in fresh serum-free medium to a final concentration of 0.3% DMSO (vehicle) and added to the cells and incubated for 1 h. Cells were then immediately lysed with 150 μL of cold 1× lysis buffer […], 137 mM sodium chloride, 2 mM EDTA, 10% glycerol, 1% NP-40 alternative, 1 mM activated sodium orthovanadate, 1 mM PefaBloc SC (Sigma-Aldrich #11429868001), protease/phosphatase inhibitor tablet (Thermo Fisher #A32959)]. Lysates were clarified by centrifugation and 50 μL/well added into the human phospho-Mer DuoSet IC ELISA (R&D Systems #DYC2579-2). Assay was performed according to manufacturer's instructions and sample phospho-Mer concentrations were extrapolated using human phospho-Mer control (R&D Systems #841793) as a standard. Positive control wells (100% activity) contained DMSO-treated cell lysates. Negative control wells (0% activity) contained reference inhibitor-treated cell lysates. IC50 values were calculated by nonlinear regression analysis using a 4-parameter logistic curve fit in ActivityBase XE (IDBS).

KDR = KDR (Homo sapiens, UniProt P35968); assay: KDR autophosphorylation ELISA in HUVEC cells; design: endogenous in cells; host or cells: HUVEC (Lonza #C2519A); conditions: Table 3 Cellular Activities, VEGF165-stimulated, phospho-KDR ELISA
Sequence of KDR (P35968 20-1356): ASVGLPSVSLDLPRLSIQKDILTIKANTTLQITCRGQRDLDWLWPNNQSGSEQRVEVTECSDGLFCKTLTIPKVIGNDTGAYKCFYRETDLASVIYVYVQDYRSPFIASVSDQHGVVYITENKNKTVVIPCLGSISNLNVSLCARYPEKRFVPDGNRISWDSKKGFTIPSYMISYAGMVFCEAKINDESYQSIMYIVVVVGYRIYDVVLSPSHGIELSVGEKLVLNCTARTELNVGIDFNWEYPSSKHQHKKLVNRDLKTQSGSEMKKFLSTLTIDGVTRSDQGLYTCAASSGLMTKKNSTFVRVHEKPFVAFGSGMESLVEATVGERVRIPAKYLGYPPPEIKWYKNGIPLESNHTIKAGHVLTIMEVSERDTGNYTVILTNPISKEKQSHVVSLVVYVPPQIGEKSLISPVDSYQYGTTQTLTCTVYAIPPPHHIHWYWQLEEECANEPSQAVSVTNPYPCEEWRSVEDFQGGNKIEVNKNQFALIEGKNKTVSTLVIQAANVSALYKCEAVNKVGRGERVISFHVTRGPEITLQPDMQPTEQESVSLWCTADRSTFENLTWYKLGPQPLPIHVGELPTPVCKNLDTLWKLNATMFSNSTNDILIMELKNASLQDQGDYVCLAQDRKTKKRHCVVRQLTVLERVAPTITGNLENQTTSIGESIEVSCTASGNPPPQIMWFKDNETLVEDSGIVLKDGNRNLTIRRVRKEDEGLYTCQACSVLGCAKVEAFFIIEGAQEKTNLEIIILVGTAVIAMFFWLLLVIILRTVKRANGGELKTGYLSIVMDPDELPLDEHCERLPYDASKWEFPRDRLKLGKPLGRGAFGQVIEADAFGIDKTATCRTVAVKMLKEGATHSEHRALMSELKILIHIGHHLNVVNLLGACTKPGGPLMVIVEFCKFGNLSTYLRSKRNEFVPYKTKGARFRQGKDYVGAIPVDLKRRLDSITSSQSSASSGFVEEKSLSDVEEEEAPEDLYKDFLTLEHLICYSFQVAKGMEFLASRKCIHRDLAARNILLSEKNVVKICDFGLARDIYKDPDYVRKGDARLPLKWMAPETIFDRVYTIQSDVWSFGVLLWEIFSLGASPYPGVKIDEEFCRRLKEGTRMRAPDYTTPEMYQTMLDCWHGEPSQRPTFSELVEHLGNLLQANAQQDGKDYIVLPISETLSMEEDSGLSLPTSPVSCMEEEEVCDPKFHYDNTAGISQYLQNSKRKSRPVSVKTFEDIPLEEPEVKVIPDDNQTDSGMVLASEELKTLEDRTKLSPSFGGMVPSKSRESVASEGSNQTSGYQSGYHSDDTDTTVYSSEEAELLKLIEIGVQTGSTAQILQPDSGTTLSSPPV
Description: Human umbilical vein endothelial cells or HUVEC (Lonza #C2519A) were seeded at 2×10^4 cells/well onto 96-well plates (Corning #3904), in EGM-2 growth medium (Lonza #CC-3162) containing 1% Penicillin Streptomycin (Thermo Fisher #15140-122). HUVEC cells were incubated at 37° C., 5% CO2 for 24 h and then starved for 24 h in serum-free EBM-2 basal medium (Lonza #CC-3156) containing 1% Penicillin Streptomycin. Test compounds were serially diluted to produce an 8-point dose curve in fresh serum-free medium to a final concentration of 0.3% DMSO (vehicle) and added to the cells and incubated for 1 h. Cells were then stimulated with 100 ng/mL recombinant human VEGF165 (R&D Systems #293-VE-500) for 5 min, washed with cold PBS, and immediately lysed with 130 μL of cold 1× lysis buffer [20 mM Tris, 137 mM sodium chloride, 2 mM EDTA, 10% glycerol, 1% NP-40 alternative, 1 mM activated sodium orthovanadate, 1 mM PefaBloc SC (Sigma-Aldrich #11429868001), protease/phosphatase inhibitor tablet (Thermo Fisher #A32959)]. Lysates were collected and 100 μL/well added into the human phospho-KDR DuoSet IC ELISA (R&D Systems #DYC1766-2). Assay was performed according to manufacturer's instructions and sample phospho-KDR concentrations were extrapolated using human phospho-KDR control (R&D Systems #841421) as a standard. Positive control wells (100% activity) contained VEGF165-stimulated, DMSO-treated cell lysates. Negative control wells (0% activity) contained non-stimulated cell lysates. IC50 values were calculated by nonlinear regression analysis using a 4-parameter logistic curve fit in ActivityBase XE (IDBS).

Met = Met (Homo sapiens, UniProt P08581); assay: Met autophosphorylation ELISA in PC-3 cells; design: endogenous in cells; host or cells: PC-3 prostate cancer cells (ATCC #CRL-1435); conditions: Table 3 Cellular Activities, HGF-stimulated, phospho-Met ELISA, read-out: c-Met IC50
Sequence of Met (P08581 25-1390): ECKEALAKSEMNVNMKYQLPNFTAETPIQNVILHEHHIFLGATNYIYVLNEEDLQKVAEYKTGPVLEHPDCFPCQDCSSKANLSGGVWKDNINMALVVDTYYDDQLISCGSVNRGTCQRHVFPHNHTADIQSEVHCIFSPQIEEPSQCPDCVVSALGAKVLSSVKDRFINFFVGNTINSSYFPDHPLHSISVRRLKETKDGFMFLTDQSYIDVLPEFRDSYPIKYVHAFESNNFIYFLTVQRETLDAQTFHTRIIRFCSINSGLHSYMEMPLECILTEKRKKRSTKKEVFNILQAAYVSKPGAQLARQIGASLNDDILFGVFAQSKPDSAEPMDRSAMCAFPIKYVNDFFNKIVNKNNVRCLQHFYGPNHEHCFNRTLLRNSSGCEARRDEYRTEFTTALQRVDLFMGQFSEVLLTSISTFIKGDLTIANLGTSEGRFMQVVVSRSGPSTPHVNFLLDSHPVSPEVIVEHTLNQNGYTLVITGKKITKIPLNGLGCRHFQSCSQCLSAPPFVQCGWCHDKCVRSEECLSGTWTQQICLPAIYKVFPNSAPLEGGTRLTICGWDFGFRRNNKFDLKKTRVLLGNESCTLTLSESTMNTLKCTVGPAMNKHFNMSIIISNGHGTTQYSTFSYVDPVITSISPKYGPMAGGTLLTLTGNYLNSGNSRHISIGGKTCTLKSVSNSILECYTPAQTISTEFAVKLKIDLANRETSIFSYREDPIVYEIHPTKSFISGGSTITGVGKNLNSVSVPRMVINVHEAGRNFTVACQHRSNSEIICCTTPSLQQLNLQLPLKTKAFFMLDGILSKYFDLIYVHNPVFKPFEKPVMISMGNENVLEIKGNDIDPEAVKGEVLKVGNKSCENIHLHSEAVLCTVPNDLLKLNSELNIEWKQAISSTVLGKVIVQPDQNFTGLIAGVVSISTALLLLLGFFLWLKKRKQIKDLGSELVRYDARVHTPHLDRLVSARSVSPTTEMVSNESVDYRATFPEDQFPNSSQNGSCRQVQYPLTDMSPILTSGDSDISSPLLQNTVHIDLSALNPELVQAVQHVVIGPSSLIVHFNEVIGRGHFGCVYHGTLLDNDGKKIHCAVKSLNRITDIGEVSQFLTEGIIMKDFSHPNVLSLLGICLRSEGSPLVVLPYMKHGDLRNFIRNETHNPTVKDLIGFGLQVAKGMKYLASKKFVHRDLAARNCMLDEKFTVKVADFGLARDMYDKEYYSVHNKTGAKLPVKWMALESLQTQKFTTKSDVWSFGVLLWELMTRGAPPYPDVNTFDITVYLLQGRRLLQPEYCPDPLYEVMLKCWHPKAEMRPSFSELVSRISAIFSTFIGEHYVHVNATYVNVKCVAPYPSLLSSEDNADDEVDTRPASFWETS
Description: PC-3 prostate cancer cells (ATCC #CRL-1435) were seeded at 4×10^4 cells/well onto 24-well plates (Greiner #662165), in DMEM (Thermo Fisher #11995-040) containing 10% FBS (Thermo Fisher #26140-079), 1% MEM NEAA (Thermo Fisher #11140-050), 1% GlutaMax (Thermo Fisher #35050-061), and 1% Penicillin Streptomycin (Thermo Fisher #15140-122). PC-3 cells were incubated at 37° C., 5% CO2 for 24 h and then starved for 3 h in serum-free medium. Test compounds were serially diluted to produce an 8-point dose curve in fresh serum-free medium to a final concentration of 0.3% DMSO (vehicle) and added to the cells and incubated for 1 h. Cells were then stimulated with 100 ng/mL recombinant human HGF (R&D Systems #294-HG-250) for 10 min, washed with cold PBS, and immediately lysed with 130 μL of cold 1× lysis buffer [20 mM Tris, 137 mM sodium chloride, 2 mM EDTA, 10% glycerol, 1% NP-40 alternative, 1 mM activated sodium orthovanadate, 1 mM PefaBloc SC (Sigma-Aldrich #11429868001), protease/phosphatase inhibitor tablet (Thermo Fisher #A32959)]. Lysates were clarified by centrifugation and 100 μL/well added into the PathScan phospho-Met (panTyr) Sandwich ELISA (Cell Signaling Technology #7333). Assay was performed according to manufacturer's instructions. Positive control wells (100% activity) contained HGF-stimulated, DMSO-treated cell lysates. Negative control wells (0% activity) contained HGF-stimulated, reference inhibitor-treated cell lysates. IC50 values were calculated by nonlinear regression analysis using a 4-parameter logistic curve fit in ActivityBase XE (IDBS).

| IC50 (Mer) [nM] | IC50 (KDR) [nM] | IC50 (Met) [nM] | SMILES |
| --- | --- | --- | --- |
| ≤ 100 | 300 to 1000 | ≤ 100 | COc1cnc2c(Oc3ccc(NC(=O)c4c(C)n(C)c(C)c(-c5ccco5)c4=O)cc3F)ccnc2c1 [Compound 162, N-[3-Fluoro-4-[(7-methoxy-1,5-naphthyridin-4-yl)oxy]phenyl]-5-(furan-2-yl)-1,2,6-trimethyl-4-oxopyridine-3-carboxamide] |
| ≤ 100 | 300 to 1000 | ≤ 100 | COCCOc1cnc2c(Oc3ccc(NC(=O)c4c(C)n(C)c(C)c(-c5ccco5)c4=O)cc3F)ccnc2c1 [Compound 266, N-[3-Fluoro-4-[[7-(2-methoxyethoxy)-1,5-naphthyridin-4-yl]oxy]phenyl]-5-(furan-2-yl)-1,2,6-trimethyl-4-oxopyridine-3-carboxamide] |
| ≤ 100 | 300 to 1000 | ≤ 100 | COc1cnc2c(Oc3ccc(NC(=O)c4c(C)n(C)c(C)c(-c5ccco5)c4=O)cc3)ccnc2c1 [Compound 161, 5-(Furan-2-yl)-N-[4-[(7-methoxy-1,5-naphthyridin-4-yl)oxy]phenyl]-1,2,6-trimethyl-4-oxopyridine-3-carboxamide] |
| ≤ 100 | 300 to 1000 | 300 to 1000 | CCc1c(C(=O)Nc2ccc(Oc3ccnc4cc(OC)c(OC)nc34)cc2)c(=O)c(-c2ccco2)c(C)n1C [Compound 325, N-[4-[(6,7-Dimethoxy-1,5-naphthyridin-4-yl)oxy]phenyl]-2-ethyl-5-(furan-2-yl)-1,6-dimethyl-4-oxopyridine-3-carboxamide] |
| ≤ 100 | ≤ 100 | ≤ 100 | CCOCCOCCOc1cc(-n2c(C)ccc(C(=O)Nc3ccc(Oc4ccnc5cc(OC)c(OC)nc45)c(F)c3)c2=O)ccn1 [Compound 224, N-[4-[(6,7-Dimethoxy-1,5-naphthyridin-4-yl)oxy]-3-fluorophenyl]-1-[2-[2-(2-ethoxyethoxy)ethoxy]pyridin-4-yl]-6-methyl-2-oxopyridine-3-carboxamide] |
| ≤ 100 | 300 to 1000 | ≤ 100 | COc1cc2nccc(Oc3ccc(NC(=O)c4c5n(cc(-c6ccsc6)c4=O)CCOC5)cc3)c2nc1OC [Compound 301, N-[4-[(6,7-Dimethoxy-1,5-naphthyridin-4-yl)oxy]phenyl]-8-oxo-7-thiophen-3-yl-3,4-dihydro-1H-pyrido[2,1-c][1,4]oxazine-9-carboxamide] |
| ≤ 100 | 100 to 300 | ≤ 100 | COc1cc2nccc(Oc3ccc(NC(=O)c4c5n(cc(-c6ccsc6)c4=O)CCOC5)cc3F)c2nc1OC [Compound 300, N-[4-[(6,7-Dimethoxy-1,5-naphthyridin-4-yl)oxy]-3-fluorophenyl]-8-oxo-7-thiophen-3-yl-3,4-dihydro-1H-pyrido[2,1-c][1,4]oxazine-9-carboxamide] |
| 300 to 1000 | 300 to 1000 | 300 to 1000 | COc1cc2nccc(Oc3ccc(NC(=O)c4cc(C(C)=O)c(C)n(-c5ccoc5)c4=O)cc3)c2nc1OC [Compound 239, 5-Acetyl-N-[4-[(6,7-dimethoxy-1,5-naphthyridin-4-yl)oxy]phenyl]-1-(furan-3-yl)-6-methyl-2-oxopyridine-3-carboxamide] |
| ≤ 100 | ≤ 100 | ≤ 100 | COc1cc2nccc(Oc3ccc(NC(=O)c4c(C)ncc(-c5ccc(C)s5)c4O)cc3F)c2nc1OC [Compound 124, N-[4-[(6,7-Dimethoxy-1,5-naphthyridin-4-yl)oxy]-3-fluorophenyl]-4-hydroxy-2-methyl-5-(5-methylthiophen-2-yl)pyridine-3-carboxamide] |
| ≤ 100 | 300 to 1000 | ≤ 100 | COc1cc2nccc(Oc3ccc(NC(=O)c4c5n(c(C)c(-c6ccoc6)c4=O)CCOC5)cc3F)c2nc1OC [Compound 308, N-[4-[(6,7-Dimethoxy-1,5-naphthyridin-4-yl)oxy]-3-fluorophenyl]-7-(furan-3-yl)-6-methyl-8-oxo-3,4-dihydro-1H-pyrido [2,1-c][1,4]oxazine-9-carboxamide] |
| ≤ 100 | ≤ 100 | 100 to 300 | COc1cc2nccc(Oc3ccc(NC(=O)c4c(C)ncc(-c5ccc(C=O)o5)c4O)cc3F)c2nc1OC [Compound 121, N-[4-[(6,7-Dimethoxy-1,5-naphthyridin-4-yl)oxy]-3-fluorophenyl]-5-(5-formylfuran-2-yl)-4-hydroxy-2-methylpyridine-3-carboxamide] |
